Measurements from article PMC9954146, “Anti-Leukaemic Activity of Rilpivirine Is Mediated by Aurora A Kinase Inhibition” (Cancers, 2023).

Tests used:
Test in all cases: Kinase panel
Type in all cases: biochemical
Conditions in all cases: read-out: % Residual Activity
TAO2(h) = molecular target: T1, TAO2(h) (Homo sapiens, UniProt Q9UL54)
T1 construct: purchased Eurofins (KinaseProfiler)
In short: (§1)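 Selectivity panel (kinome-wide), rilpivirine as test compound. Readout: radiolabel incorporation. ATP = Km of the respective kinase. Ki calculated from IC50 (Cheng–Prusoff).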

ACTR2(h) = molecular target: T2, ACTR2(h) (Homo sapiens, UniProt P27037)
T2 construct: purchased Eurofins (KinaseProfiler)
In short: as §1

CK1δ(h) = molecular target: T3, CK1δ(h) (Homo sapiens, UniProt P48730)
T3 construct: purchased Eurofins (KinaseProfiler)
T3 sequence (P48730 whole entry): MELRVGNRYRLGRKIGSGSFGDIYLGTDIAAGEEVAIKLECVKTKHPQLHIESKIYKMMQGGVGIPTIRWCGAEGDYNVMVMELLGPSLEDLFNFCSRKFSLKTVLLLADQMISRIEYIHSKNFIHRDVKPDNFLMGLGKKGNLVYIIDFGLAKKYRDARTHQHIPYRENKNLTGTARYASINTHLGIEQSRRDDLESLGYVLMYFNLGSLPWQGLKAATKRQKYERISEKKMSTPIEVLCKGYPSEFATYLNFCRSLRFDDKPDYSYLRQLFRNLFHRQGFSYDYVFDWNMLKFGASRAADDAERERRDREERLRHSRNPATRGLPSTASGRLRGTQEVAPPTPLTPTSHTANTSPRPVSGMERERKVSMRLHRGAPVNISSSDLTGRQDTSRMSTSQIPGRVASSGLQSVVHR
In short: as §1

CLIK1(h) = molecular target: T4, CLIK1(h) (Homo sapiens, UniProt Q8TDR2)
T4 construct: purchased Eurofins (KinaseProfiler)
In short: as §1

MLK3(h) = molecular target: T5, MLK3(h) (Homo sapiens, UniProt Q16584)
T5 construct: purchased Eurofins (KinaseProfiler)
In short: as §1

Blk(m) = molecular target: T6, Blk(m) (Mus musculus, UniProt P16277)
T6 construct: purchased Eurofins (KinaseProfiler)
In short: as §1

Lck(h) = molecular target: T7, Lck(h) (Homo sapiens, UniProt P06239)
T7 construct: purchased Eurofins (KinaseProfiler)
In short: as §1

Tec(h) activated = molecular target: T8, Tec(h) activated (Homo sapiens, UniProt P42680)
T8 construct: purchased Eurofins (KinaseProfiler)
In short: as §1

PAR-1Bα(h) = molecular target: T9, PAR-1Bα(h) (Homo sapiens, UniProt Q7KZI7)
T9 construct: purchased Eurofins (KinaseProfiler)
In short: as §1

ULK1(h) = molecular target: T10, ULK1(h) (Homo sapiens, UniProt O75385)
T10 construct: purchased Eurofins (KinaseProfiler)
In short: as §1

EGFR(L861Q)(h) = molecular target: T11, EGFR(L861Q)(h) (Homo sapiens, UniProt P00533, L861Q)
T11 construct: purchased Eurofins (KinaseProfiler)
In short: as §1

[1] = molecular target: PI3 Kinase (p110b/p85b)(m) (Mus musculus, UniProt Q8BTI9)
In short: as §1

PKA(h) = molecular target: T12, PKA(h) (Homo sapiens, UniProt P17612)
T12 construct: purchased Eurofins (KinaseProfiler)
In short: as §1

FGFR4(h) = molecular target: T13, FGFR4(h) (Homo sapiens, UniProt P22455)
T13 construct: purchased Eurofins (KinaseProfiler)
In short: as §1

NEK7(h) = molecular target: T14, NEK7(h) (Homo sapiens, UniProt Q8TDX7)
T14 construct: purchased Eurofins (KinaseProfiler)
In short: as §1

PKCδ(h) = molecular target: T15, PKCδ(h) (Homo sapiens, UniProt Q05655)
T15 construct: purchased Eurofins (KinaseProfiler)
In short: as §1

MOK(h) = molecular target: T16, MOK(h) (Homo sapiens, UniProt Q9UQ07)
T16 construct: purchased Eurofins (KinaseProfiler)
T16 sequence (Q9UQ07 whole entry): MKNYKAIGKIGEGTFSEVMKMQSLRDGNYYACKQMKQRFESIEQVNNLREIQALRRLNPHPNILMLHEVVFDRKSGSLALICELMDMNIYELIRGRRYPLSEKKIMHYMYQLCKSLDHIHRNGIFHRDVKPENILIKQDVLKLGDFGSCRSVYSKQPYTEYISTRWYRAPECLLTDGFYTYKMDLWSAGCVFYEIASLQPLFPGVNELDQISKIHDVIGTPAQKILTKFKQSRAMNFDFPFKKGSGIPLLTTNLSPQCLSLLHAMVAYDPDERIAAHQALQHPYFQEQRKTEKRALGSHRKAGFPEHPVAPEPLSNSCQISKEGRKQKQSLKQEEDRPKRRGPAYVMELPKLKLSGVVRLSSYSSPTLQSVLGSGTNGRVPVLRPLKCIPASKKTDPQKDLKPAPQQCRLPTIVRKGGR
In short: as §1

SAPK3(h) = molecular target: T17, SAPK3(h) (Homo sapiens, UniProt P53778)
T17 construct: purchased Eurofins (KinaseProfiler)
T17 sequence (P53778 whole entry): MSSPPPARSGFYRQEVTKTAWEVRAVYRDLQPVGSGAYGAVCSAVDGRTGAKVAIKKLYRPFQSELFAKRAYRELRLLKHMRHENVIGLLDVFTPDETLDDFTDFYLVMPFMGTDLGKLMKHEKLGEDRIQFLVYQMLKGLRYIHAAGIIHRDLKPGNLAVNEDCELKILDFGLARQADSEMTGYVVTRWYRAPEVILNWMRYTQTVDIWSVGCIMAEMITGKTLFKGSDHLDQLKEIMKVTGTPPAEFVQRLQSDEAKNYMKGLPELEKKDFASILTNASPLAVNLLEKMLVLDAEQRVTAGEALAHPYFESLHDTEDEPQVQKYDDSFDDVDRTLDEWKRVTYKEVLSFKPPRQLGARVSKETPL
In short: as §1

EphB2(h) = molecular target: T18, EphB2(h) (Homo sapiens, UniProt P29323)
T18 construct: purchased Eurofins (KinaseProfiler)
In short: as §1

[2] = molecular target: PI3 Kinase (p110a(H1047R)/p85a)(m) (Mus musculus, UniProt P42337, H1047R)
In short: as §1

MKK4(m) = molecular target: T19, MKK4(m) (Mus musculus, UniProt P47809)
T19 construct: purchased Eurofins (KinaseProfiler)
In short: as §1

IR(h) = molecular target: T20, IR(h) (Homo sapiens, UniProt P06213)
T20 construct: purchased Eurofins (KinaseProfiler)
T20 sequence (P06213 28-1382): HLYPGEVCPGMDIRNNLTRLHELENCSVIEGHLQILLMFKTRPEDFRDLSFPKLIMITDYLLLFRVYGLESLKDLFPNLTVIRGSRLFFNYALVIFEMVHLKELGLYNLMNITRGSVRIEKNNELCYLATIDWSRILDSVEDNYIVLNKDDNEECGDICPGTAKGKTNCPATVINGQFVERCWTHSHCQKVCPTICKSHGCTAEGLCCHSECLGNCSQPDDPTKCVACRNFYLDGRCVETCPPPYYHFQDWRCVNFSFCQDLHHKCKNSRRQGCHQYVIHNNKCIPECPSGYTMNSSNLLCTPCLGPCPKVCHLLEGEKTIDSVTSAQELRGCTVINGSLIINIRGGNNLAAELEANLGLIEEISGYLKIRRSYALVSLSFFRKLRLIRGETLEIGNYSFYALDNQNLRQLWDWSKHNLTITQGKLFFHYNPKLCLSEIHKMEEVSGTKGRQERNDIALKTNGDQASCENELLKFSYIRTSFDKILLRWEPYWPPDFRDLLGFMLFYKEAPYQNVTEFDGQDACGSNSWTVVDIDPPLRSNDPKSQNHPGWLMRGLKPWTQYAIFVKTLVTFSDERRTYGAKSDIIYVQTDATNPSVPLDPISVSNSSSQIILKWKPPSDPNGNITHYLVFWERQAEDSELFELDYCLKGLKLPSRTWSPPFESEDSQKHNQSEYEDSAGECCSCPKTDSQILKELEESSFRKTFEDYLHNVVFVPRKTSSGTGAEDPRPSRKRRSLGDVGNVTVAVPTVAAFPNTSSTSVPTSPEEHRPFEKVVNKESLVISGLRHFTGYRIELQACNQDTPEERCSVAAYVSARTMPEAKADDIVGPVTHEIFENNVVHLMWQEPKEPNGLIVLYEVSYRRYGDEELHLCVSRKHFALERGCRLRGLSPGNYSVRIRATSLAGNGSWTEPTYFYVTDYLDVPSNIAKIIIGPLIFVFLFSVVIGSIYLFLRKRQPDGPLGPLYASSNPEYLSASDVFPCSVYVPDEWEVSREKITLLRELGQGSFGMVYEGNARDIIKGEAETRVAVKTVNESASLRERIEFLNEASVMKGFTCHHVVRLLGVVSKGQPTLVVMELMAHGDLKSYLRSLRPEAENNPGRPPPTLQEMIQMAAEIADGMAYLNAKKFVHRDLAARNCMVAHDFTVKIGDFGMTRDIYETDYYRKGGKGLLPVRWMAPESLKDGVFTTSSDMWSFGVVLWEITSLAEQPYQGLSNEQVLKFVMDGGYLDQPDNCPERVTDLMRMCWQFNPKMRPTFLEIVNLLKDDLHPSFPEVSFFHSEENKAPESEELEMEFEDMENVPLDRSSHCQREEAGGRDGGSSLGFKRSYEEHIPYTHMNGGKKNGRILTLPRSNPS
In short: as §1

ALK4(h) = molecular target: T21, ALK4(h) (Homo sapiens, UniProt P36896)
T21 construct: purchased Eurofins (KinaseProfiler)
In short: as §1

WNK1(h) = molecular target: T22, WNK1(h) (Homo sapiens, UniProt Q9H4A3)
T22 construct: purchased Eurofins (KinaseProfiler)
T22 sequence (Q9H4A3 whole entry): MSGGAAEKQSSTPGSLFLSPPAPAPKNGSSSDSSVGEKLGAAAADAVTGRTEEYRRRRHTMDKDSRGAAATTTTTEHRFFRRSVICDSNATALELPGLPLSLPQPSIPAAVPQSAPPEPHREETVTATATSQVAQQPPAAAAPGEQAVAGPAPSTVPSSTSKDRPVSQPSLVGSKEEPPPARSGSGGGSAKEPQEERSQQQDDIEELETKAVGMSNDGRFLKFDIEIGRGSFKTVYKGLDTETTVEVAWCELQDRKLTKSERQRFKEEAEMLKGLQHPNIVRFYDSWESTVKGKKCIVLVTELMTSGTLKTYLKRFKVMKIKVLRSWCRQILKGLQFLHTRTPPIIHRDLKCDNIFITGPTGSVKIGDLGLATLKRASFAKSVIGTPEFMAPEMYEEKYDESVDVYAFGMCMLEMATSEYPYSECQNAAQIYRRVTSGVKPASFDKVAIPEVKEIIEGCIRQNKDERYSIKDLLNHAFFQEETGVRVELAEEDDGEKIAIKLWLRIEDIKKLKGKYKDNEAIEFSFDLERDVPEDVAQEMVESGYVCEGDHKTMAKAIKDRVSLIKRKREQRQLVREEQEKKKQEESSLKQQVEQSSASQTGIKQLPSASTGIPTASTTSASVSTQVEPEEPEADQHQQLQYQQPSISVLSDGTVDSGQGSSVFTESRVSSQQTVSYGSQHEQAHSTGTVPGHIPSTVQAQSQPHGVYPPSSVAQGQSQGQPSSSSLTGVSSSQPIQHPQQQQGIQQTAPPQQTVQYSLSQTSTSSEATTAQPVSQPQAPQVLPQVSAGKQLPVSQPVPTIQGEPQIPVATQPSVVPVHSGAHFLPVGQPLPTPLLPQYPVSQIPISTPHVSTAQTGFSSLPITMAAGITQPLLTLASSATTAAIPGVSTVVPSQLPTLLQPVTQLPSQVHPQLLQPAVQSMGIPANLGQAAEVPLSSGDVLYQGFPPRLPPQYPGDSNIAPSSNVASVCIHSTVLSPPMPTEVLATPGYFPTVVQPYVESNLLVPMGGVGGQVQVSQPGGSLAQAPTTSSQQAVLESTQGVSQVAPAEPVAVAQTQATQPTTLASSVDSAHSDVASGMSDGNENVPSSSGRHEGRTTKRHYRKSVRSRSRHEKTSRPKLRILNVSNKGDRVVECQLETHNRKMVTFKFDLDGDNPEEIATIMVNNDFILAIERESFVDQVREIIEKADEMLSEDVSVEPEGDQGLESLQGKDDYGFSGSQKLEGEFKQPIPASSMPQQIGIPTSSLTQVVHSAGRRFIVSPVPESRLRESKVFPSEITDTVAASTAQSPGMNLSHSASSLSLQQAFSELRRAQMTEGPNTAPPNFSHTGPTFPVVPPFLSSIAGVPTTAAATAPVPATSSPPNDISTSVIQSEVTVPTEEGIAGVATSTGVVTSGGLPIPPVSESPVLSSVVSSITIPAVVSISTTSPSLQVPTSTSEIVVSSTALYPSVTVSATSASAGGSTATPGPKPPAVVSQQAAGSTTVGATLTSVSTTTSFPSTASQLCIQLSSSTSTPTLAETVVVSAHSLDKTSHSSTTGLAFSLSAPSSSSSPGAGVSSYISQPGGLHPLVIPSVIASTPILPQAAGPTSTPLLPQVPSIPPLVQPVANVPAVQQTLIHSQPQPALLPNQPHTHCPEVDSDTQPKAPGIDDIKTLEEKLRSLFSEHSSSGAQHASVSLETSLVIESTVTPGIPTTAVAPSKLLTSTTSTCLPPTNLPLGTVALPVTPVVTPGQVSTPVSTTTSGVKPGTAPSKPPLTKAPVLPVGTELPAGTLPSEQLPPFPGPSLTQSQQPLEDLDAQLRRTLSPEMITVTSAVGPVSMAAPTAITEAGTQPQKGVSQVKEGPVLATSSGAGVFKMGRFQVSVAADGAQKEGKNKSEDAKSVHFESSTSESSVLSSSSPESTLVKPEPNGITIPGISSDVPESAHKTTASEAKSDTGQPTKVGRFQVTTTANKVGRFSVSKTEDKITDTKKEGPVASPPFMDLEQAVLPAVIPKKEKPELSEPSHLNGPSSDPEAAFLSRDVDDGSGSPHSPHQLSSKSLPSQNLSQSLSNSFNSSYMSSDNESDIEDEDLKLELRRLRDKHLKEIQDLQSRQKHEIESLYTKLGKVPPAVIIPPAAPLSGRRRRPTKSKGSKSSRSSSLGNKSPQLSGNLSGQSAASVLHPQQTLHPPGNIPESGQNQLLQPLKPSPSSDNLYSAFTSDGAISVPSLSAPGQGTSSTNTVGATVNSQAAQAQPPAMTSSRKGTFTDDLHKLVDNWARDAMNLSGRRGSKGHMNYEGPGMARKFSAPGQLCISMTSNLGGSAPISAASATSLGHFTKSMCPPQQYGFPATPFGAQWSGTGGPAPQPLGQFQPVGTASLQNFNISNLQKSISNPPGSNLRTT
In short: as §1

FGFR3(h) = molecular target: T23, FGFR3(h) (Homo sapiens, UniProt P22607)
T23 construct: purchased Eurofins (KinaseProfiler)
In short: as §1

MYO3B(h) = molecular target: T24, MYO3B(h) (Homo sapiens, UniProt Q8WXR4)
T24 construct: purchased Eurofins (KinaseProfiler)
In short: as §1

ULK3(h) = molecular target: T25, ULK3(h) (Homo sapiens, UniProt Q6PHR2)
T25 construct: purchased Eurofins (KinaseProfiler)
In short: as §1

EphB1(h) = molecular target: T26, EphB1(h) (Homo sapiens, UniProt P54762)
T26 construct: purchased Eurofins (KinaseProfiler)
In short: as §1

MST3(h) = molecular target: T27, MST3(h) (Homo sapiens, UniProt Q9Y6E0)
T27 construct: purchased Eurofins (KinaseProfiler)
In short: as §1

PhKγ1(h) = molecular target: T28, PhKγ1(h) (Homo sapiens, UniProt Q16816)
T28 construct: purchased Eurofins (KinaseProfiler)
In short: as §1

EGFR(L858R)(h) = molecular target: T29, EGFR(L858R)(h) (Homo sapiens, UniProt P00533, L858R)
T29 construct: purchased Eurofins (KinaseProfiler)
In short: as §1

B-Raf(V599E)(h) = molecular target: T30, B-Raf(V599E)(h) (Homo sapiens, UniProt P15056, V600E)
T30 construct: purchased Eurofins (KinaseProfiler)
In short: as §1

GRK5(h) = molecular target: T31, GRK5(h) (Homo sapiens, UniProt P34947)
T31 construct: purchased Eurofins (KinaseProfiler)
In short: as §1

CDK2/cyclinE(h) = molecular target: T32, CDK2/cyclinE(h) (Homo sapiens, UniProt P24941)
T32 construct: purchased Eurofins (KinaseProfiler)
In short: as §1

MEKK3(h) = molecular target: T33, MEKK3(h) (Homo sapiens, UniProt Q99759)
T33 construct: purchased Eurofins (KinaseProfiler)
In short: as §1

DDR2(h) = molecular target: T34, DDR2(h) (Homo sapiens, UniProt Q16832)
T34 construct: purchased Eurofins (KinaseProfiler)
In short: as §1

GRK1(h) = molecular target: T35, GRK1(h) (Homo sapiens, UniProt Q15835)
T35 construct: purchased Eurofins (KinaseProfiler)
In short: as §1

PKR(h) = molecular target: T36, PKR(h) (Homo sapiens, UniProt P19525)
T36 construct: purchased Eurofins (KinaseProfiler)
In short: as §1

## Cc1cc(/C=C/C#N)cc(C)c1Nc1ccnc(Nc2ccc(C#N)cc2)n1 [rilpivirine, (E)-4-((4-((4-(2-cyanoethenyl)-2,6-dimethylphenyl)amino)pyrimidin-2-yl)amino)benzonitrile]
TAO2(h)
  remaining activity at 1 µM: 59%
ACTR2(h)
  remaining activity at 1 µM: 91%
CK1δ(h)
  remaining activity at 1 µM: 99%
CLIK1(h)
  remaining activity at 1 µM: 85%
MLK3(h)
  remaining activity at 1 µM: 81%
Blk(m)
  remaining activity at 1 µM: 75%
Lck(h)
  remaining activity at 1 µM: 33%
Tec(h) activated
  remaining activity at 1 µM: 105%
PAR-1Bα(h)
  remaining activity at 1 µM: 104%
ULK1(h)
  remaining activity at 1 µM: 85%
EGFR(L861Q)(h)
  remaining activity at 1 µM: 35%
[1]
  remaining activity at 1 µM: 97%
PKA(h)
  remaining activity at 1 µM: 93%
FGFR4(h)
  remaining activity at 1 µM: 121%
NEK7(h)
  remaining activity at 1 µM: 110%
PKCδ(h)
  remaining activity at 1 µM: 72%
MOK(h)
  remaining activity at 1 µM: 92%
SAPK3(h)
  remaining activity at 1 µM: 106%
EphB2(h)
  remaining activity at 1 µM: 78%
[2]
  remaining activity at 1 µM: 96%
MKK4(m)
  remaining activity at 1 µM: 84%
IR(h)
  remaining activity at 1 µM: 111%
ALK4(h)
  remaining activity at 1 µM: 79%
WNK1(h)
  remaining activity at 1 µM: 95%
FGFR3(h)
  remaining activity at 1 µM: 98%
MYO3B(h)
  remaining activity at 1 µM: 96%
ULK3(h)
  remaining activity at 1 µM: 94%
EphB1(h)
  remaining activity at 1 µM: 94%
MST3(h)
  remaining activity at 1 µM: 93%
PhKγ1(h)
  remaining activity at 1 µM: 80%
EGFR(L858R)(h)
  remaining activity at 1 µM: 90%
B-Raf(V599E)(h)
  remaining activity at 1 µM: 95%
GRK5(h)
  remaining activity at 1 µM: 96%
CDK2/cyclinE(h)
  remaining activity at 1 µM: 92%
MEKK3(h)
  remaining activity at 1 µM: 72%
DDR2(h)
  remaining activity at 1 µM: 82%
GRK1(h)
  remaining activity at 1 µM: 103%
PKR(h)
  remaining activity at 1 µM: 92%
